Our source for the inhibition values is patent US4764525A, “N-1H-tetrazol-5-ylbenzamides having use as antiallergy and antiinflammatory agents” (Warner-Lambert Company, priority 1987, dated 1988).

The assay concerns human basophils. Briefly: HHB assay: inhibition of histamine release from human basophils. Conditions: Anti-IgE stimulus, tested at 33 μM. It is filed as cell-based. The text has this:
The HHB assay quantitates active histamine release and its inhibition by drugs, from basophils of human blood. Thus, the assay provides evaluation of the compounds of formula I for treating the conditions or diseases as is the present invention. As described herein the assay includes modifications of the method described by R. P. Siroganian in "An Automated Continuous-Flow System for the Extraction and Fluorometric Analysis of Histamine," Anal. Biochem., 57, 383-394 (1974).
Seventy ml of blood are drawn from allergic donors (chosen on the basis of adequate histamine induced by a challenge), using standard venipuncture methods, into 10 ml Vacutainers with 0.08 ml/tube 15% EDTA in water as anticoagulant. The blood samples are placed briefly on a rotary mixer. All glassware contacting the blood is siliconized. The blood is aliquoted into three plastic 50 ml centrifuge tubes and the volume is noted. Hespan (hydroxy ethyl starch), 0.5 ml per 1.0 ml of blood, is added. The tubes are inverted several times to mix and are left undisturbed at room temperature until a sharp separation is observed between the settled red cells and the leukocyte and platelet-rich plasma. This usually occurs within 35-45 minutes.
The plasma fraction is pipetted off and placed into two clean plastic 50 ml centrifuge tubes. The tubes are centrifuged for 12 minutes at 4° C. in a a 100 ml volumetric flask and 0.5 ml DMSO is added. […] If the compound is in solution, distilled water is used to bring it up to 100 ml total volume. If the drug is not in solution, 0.2 ml 1N NaOH (or HCl) is added, and then distilled water is added to yield 100 ml total solution. Five ml of the stock solution is diluted (1:2) with 5 ml of two times concentrated HACM buffer to yield the stock working concentration of 150 μM. When added to the cells and stimulus, a final test concentration of 100 μM drug results (400 μl drug, 100 μcells and 100 μchallenge agent or vehicle). Further dilutions are made with HACM buffer for 33, 10, 3.3, 1.0 μM, etc.
Short ragweed and house dust extracts (Greer Laboratories, Inc.) are supplied as aqueous extracts in stock concentrations of 40,000 and 10,000 protein nitrogen units per milliliter (PNU/ml), respectively. Aqueous solutions of anti-IgE antisera (rabbit-raised antibody) are purchased from Dako via Accurate Chemicals. The tripeptide f-met-leu-phe (fmlp) from Vega Biochemicals is used. The aqueous solutions of ragweed, house dust, and anti-IgE are diluted 1:2 with two times concentrated HACM and then further diluted with HACM to yield final stock concentrations of 6000 PNU/ml for ragweed and house dust, and a 1:50 dilution for the anti-IgE antisera. […]

In general, inhibition refers to the change of the read-out against control, counted positive when it falls. Low readings indicate little suppression, high ones strong suppression.

`COc1ccc(C(=O)Nc2nnn[nH]2)c(OC(C)C)c1I` [Example 4, 3-Iodo-4-methoxy-2-(1-methylethoxy)-N-1H-tetrazol-5-ylbenzamide] came in with an inhibition at 33 µM of 73%. In the case of `COc1ccc(C(=O)Nc2nnn[nH]2)c(OC(C)C)c1` [Example 1, 4-Methoxy-2-(1-methylethoxy)-N-1H-tetrazol-5-ylbenzamide] it was 41%; in that of `COc1cc(OC(C)C)c(C(=O)Nc2nnn[nH]2)cc1Br` [Example 3, 5-Bromo-4-methoxy-2-(1-methylethoxy)-N-1H-tetrazol-5-ylbenzamide], 28%; in that of `COc1ccc(C(=O)Nc2nnn[nH]2)c(OC(C)C)c1Br` [Example 2, 3-Bromo-4-methoxy-2-(1-methylethoxy)-N-1H-tetrazol-5-ylbenzamide], 60%.
